Measurements from patent US20240059703A1 (AMGEN INC., priority 2021, published 2024).

Key:
[1] = system: A549 (human lung carcinoma) cells; test: Cell Viability Assay (CellTiter-Glo), A549; format: cell-based
Procedure, shortened: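 MIA PaCa-2 or A549 cells in RPMI 1640 with 10% FBS were seeded at 1.67E+04 cells/mL and incubated overnight. Serially diluted compound was then added for 72 h at 37° C, 5% CO2. Viability read by CellTiter-Glo luminescence, normalized to DMSO, with IC50 from a 4-parameter logistic fit.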

[2] = system: MIA PaCa-2 (human pancreatic carcinoma) cells; test: Cell Viability Assay (CellTiter-Glo), MIA PaCa-2; format: cell-based
Experimental: Serially-diluted compound or DMSO was added to the cells, and plates were incubated at 37° C., 5% CO2 for 72 h. Cell viability was measured using a CellTiter-Glo® Luminescent Cell Viability Assay kit (Promega) according to the manufacturer's protocol. The luminescence signal of treated samples was normalized to DMSO control, and data were analyzed using a 4-parameter logistic model to calculate IC50 values.

KRAS G12C = KRAS G12C (Homo sapiens (Human), UniProt P01116, C118A/G12C); test: 2 h coupled exchange assay; format: biochemical; conditions: Avg 2 h Coupled exchange IC50, 2 h compound pre-incubation
Sequence of KRAS G12C (P01116 other isoform, or with tags, fused parts or gaps G12C/C118A): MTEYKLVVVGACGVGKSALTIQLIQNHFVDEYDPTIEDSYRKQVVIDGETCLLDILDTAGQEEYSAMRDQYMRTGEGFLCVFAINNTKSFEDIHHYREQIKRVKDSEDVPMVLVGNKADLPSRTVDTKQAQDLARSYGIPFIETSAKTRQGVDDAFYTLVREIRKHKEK
Experimental: The term “2 h coupled exchange assay” or “20 h coupled exchange assay” as used herein refers to the assay described in the Section entitled “BIOLOGICAL EVALUATION.”

[3] = SOS-mediated nucleotide exchange

IC50 ([1]; Homo sapiens, A549, 72 h)	IC50 ([2]; Homo sapiens, MIA PaCa-2, 72 h)	IC50 (KRAS G12C; [3])	IC50 (KRAS G12C)	IC50 ([1]; 72 h)	IC50 ([2]; 72 h)	Compound
> 5000 nM	775 nM	30 nM				C=CC(=O)N1CC2(CCN(c3nc4c(c(-c5c(C)ccc6cnn(C)c56)c3C#N)CCC3CC43)C2)C1 [Example 13-116, (6aR,7aS)-4-(1,6-dimethyl-1H-indazol-7-yl)-2-(2-(2-propenoyl)-2,6-diazaspiro[3.4]octan-6-yl)-6,6a,7,7a-tetrahydro-5H-cyclopropa[h]quinoline-3-carbonitrile|(6aS,7aR)-4-(1,6-dimethyl-1H-indazol-7-yl)-2-(2-(2-propenoyl)-2,6-diazaspiro[3.4]octan-6-yl)-6,6a,7,7a-tetrahydro-5H-cyclopropa[h]quinoline-3-carbonitrile]
> 5000 nM	> 5000 nM	760 nM				C=CC(=O)N1CC2(CCN(c3nc4c(c(-c5cccc6c(F)c(O)ccc56)c3C)COC(C)(C)C4)C2)C1 [Example 12-45, 1-(6-(4-(5-fluoro-6-hydroxy-1-naphthalenyl)-3,7,7-trimethyl-7,8-dihydro-5H-pyrano[4,3-b]pyridin-2-yl)-2,6-diazaspiro[3.4]octan-2-yl)-2-propen-1-one]
> 5000 nM	534 nM		131 nM			C=CC(=O)N1CC2(CCN(c3nc4cc(-c5scnc5C)cnc4c(-c4ccccc4Cl)c3C#N)C2)C1 [Example 20-7, 4-(2-chlorophenyl)-7-(4-methyl-1,3-thiazol-5-yl)-2-(2-(2-propenoyl)-2,6-diazaspiro[3.4]octan-6-yl)-1,5-naphthyridine-3-carbonitrile]
> 5000 nM	118 nM	294 nM				C=CC(=O)N1CC2(CCN(c3cc4c(c(-c5c(C(F)(F)F)ccc6[nH]ncc56)c3Cl)OCCC4)C2)C1 [Example 2-103, 1-(6-(7-chloro-8-(5-(trifluoromethyl)-1H-indazol-4-yl)-3,4-dihydro-2H-chromen-6-yl)-2,6-diazaspiro[3.4]octan-2-yl)-2-propen-1-one]
> 5000 nM	42 nM	51 nM				C=CC(=O)N1CC2(CCN(c3nc4c(c(-c5c(C)ccc6[nH]ncc56)c3C#N)C[C@H]3C[C@@H]4C3(C)C)C2C)C1 (stereo partly drawn) [Example 13-94, (1R,9R)-10,10-dimethyl-6-(5-methyl-1H-indazol-4-yl)-4-((5R)-5-methyl-2-(2-propenoyl)-2,6-diazaspior[3.4]octan-6-yl)-3-azatricyclo[7.1.1.0^2,7]undeca-2,4,6-triene-5-carbonitrile|(1R,9R)-10,10-dimethyl-6-(5-methyl-1H-indazol-4-yl)-4-((5S)-5-methyl-2-(2-propenoyl)-2,6-diazaspiro[3.4]octan-6-yl)-3-azatricyclo[7.1.1.0^2,7]undeca-2,4,6-triene-5-carbonitrile]
> 5000 nM	198 nM	76 nM				C=CC(=O)N1CC2(CCN(c3nc4c(c(-c5c(C)ccc6[nH]ncc56)c3C#N)COC3(CCOCC3)C4)C2)C1 [Example 13-50, 4′-(5-methyl-1H-indazol-4-yl)-2′-(2-(2-propenoyl)-2,6-diazaspiro[3.4]octan-6-yl)-2,3,5,5′,6,8′-hexahydrospiro[pyran-4,7′-pyrano[4,3-b]pyridine]-3′-carbonitrile]
> 5000 nM	> 5000 nM		220 nM			C=CC(=O)N1CC2(CCN(c3nc4c(c(-c5cc(O)ccc5F)c3C#N)CCN(C(C)C)C4)C2)C1 [Example 21-15, 4-(2-fluoro-5-hydroxyphenyl)-7-(2-propanyl)-2-(2-(2-propenoyl)-2,6-diazaspiro[3.4]octan-6-yl)-5,6,7,8-tetrahydro-1,7-naphthyridine-3-carbonitrile]
> 5000 nM	338 nM	64 nM				C=CC(=O)N1CC2(CCN(c3nc4c(c(-c5ccccc5Cl)c3C#N)CCC(c3ccnn3C)C4)C2)C1 [Example 13-19, (7R)-4-(2-chlorophenyl)-7-(1-methyl-1H-pyrazol-5-yl)-2-(2-(2-propenoyl)-2,6-diazaspiro[3.4]octan-6-yl)-5,6,7,8-tetrahydro-3-quinolinecarbonitrile|(7S)-4-(2-chlorophenyl)-7-(1-methyl-1H-pyrazol-5-yl)-2-(2-(2-propenoyl)-2,6-diazaspiro[3.4]octan-6-yl)-5,6,7,8-tetrahydro-3-quinolinecarbonitrile]
		40 nM		3260 nM	1190 nM	C=CC(=O)N1CC2(CCN(c3nc4c(c(-c5cc(O)c(F)c6ccccc56)c3C#N)CC[C@@H]3C[C@H]43)C2)C1 (single isomer, unassigned) [Example 13-76]
5570 nM	6 nM	14 nM				C=CC(=O)N1CC2(CCN(c3nc4c(c(-c5c(C)ccc6[nH]ncc56)c3C#N)[C@@H]3CC[C@H]4C3)C2)C1 (single isomer, unassigned) [Example 14-7]
> 5000 nM	735 nM	89 nM				C=CC(=O)N1CC2(CCN(c3nc4c(c(-c5cc(O)ccc5F)c3C#N)C[C@H]3C[C@@H]4C3(C)C)C2)C1 [Example 2-66, (1R,9R)-6-(2-fluoro-5-hydroxyphenyl)-10,10-dimethyl-4-(2-(2-propenoyl)-2,6-diazaspiro[3.4]octan-6-yl)-3-azatricyclo[7.1.1.0^2,7]undeca-2,4,6-triene-5-carbonitrile]
3310 nM	144 nM		31 nM			C=CC(=O)N1CC2(CCN(c3nc4cc(-c5ccnn5C)ccc4c(-c4c(C)ccc5[nH]ncc45)c3C#N)C2)C1 [Example 15-1, 4-(5-methyl-1H-indazol-4-yl)-7-(1-methyl-1H-pyrazol-5-yl)-2-(2-(2-propenoyl)-2,6-diazaspiro[3.4]octan-6-yl)-3-quinolinecarbonitrile]
2780 nM	54 nM	53 nM				C=CC(=O)N1CC2(CCN(c3nc4c(c(-c5c(C(F)(F)F)ccc6[nH]ncc56)c3C#N)C[C@H]3C[C@@H]4C3(C)C)C2)C1 [Example 2-31, (1R,9R)-10,10-dimethyl-4-(2-(2-propenoyl)-2,6-diazaspiro[3.4]octan-6-yl)-6-(5-(trifluoromethyl)-1H-indazol-4-yl)-3-azatricyclo[7.1.1.0^2,7]undeca-2,4,6-triene-5-carbonitrile]
> 5000 nM	> 5000 nM	117 nM				C=CC(=O)N1CC2(CCN(c3nc4c(c(-c5cc(O)ccc5C)c3C#N)COC(C)(C)C4)C2)C1 [Example 13-112, 4-(5-hydroxy-2-methylphenyl)-7,7-dimethyl-2-(2-(2-propenoyl)-2,6-diazaspiro[3.4]octan-6-yl)-7,8-dihydro-5H-pyrano[4,3-b]pyridine-3-carbonitrile]
17600 nM	7180 nM		1120 nM			C=CC(=O)N1CC2(CCN(c3nc4c(c(-c5ccccc5F)c3C#N)CCN(CCCOC)C4)C2)C1 [Example 21-39, 4-(2-fluorophenyl)-7-(3-methoxypropyl)-2-(2-(2-propenoyl)-2,6-diazaspiro[3.4]octan-6-yl)-5,6,7,8-tetrahydro-1,7-naphthyridine-3-carbonitrile]
> 5000 nM	374 nM		74 nM			C=CC(=O)N1CC2(CCN(c3nc4cc(-c5scnc5C)cnc4c(-c4cccc(C)c4C)c3C#N)C2)C1 [Example 19-1, 4-(2,3-Dimethylphenyl)-7-(4-methyl-1,3-thiazol-5-yl)-2-(2-(2-propenoyl)-2,6-diazaspiro[3.4]octan-6-yl)-1,5-naphthyridine-3-carbonitrile]
